target: T1, human GC-A (Homo sapiens, UniProt P16066); experiment: cGMP elevating activity in CHO/human GC-A cells (Test Example 1); type: cell-based
T1 construct: expressed in transfected cells; host or cells: CHO cells
T1 sequence (P16066 33-1061): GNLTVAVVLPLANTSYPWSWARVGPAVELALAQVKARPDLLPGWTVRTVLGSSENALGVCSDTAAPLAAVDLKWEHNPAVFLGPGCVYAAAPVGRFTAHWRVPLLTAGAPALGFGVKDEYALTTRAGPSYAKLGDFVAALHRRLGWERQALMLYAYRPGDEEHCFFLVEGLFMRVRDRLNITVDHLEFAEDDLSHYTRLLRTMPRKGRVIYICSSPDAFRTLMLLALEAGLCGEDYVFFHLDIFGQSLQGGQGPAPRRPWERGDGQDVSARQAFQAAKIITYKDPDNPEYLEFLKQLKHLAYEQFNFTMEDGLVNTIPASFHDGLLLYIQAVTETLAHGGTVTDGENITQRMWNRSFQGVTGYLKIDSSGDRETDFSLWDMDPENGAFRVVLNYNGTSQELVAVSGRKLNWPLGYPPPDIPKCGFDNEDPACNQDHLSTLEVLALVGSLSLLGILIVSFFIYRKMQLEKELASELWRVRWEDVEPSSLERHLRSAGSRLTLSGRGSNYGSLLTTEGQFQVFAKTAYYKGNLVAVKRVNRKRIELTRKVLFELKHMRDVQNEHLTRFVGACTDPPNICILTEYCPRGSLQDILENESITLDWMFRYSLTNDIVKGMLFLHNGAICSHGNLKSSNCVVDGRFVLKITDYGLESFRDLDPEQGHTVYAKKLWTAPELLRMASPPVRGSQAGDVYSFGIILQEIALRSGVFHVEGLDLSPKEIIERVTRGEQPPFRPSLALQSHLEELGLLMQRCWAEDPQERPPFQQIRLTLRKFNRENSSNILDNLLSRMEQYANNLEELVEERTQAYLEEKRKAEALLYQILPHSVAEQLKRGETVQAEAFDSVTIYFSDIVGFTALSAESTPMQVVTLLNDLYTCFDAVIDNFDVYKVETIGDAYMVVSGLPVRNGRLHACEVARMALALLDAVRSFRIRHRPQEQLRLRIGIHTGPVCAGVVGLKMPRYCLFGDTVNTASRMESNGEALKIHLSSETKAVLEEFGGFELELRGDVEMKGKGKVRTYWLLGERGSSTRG
Protocol: The cGMP elevating activity of each modified peptide prepared in Example 2 was measured by the following method:
CHO/human GC-A cells, which are CHO cells constitutively expressing human GC-A, were suspended at 2×10^5 cells/ml in α-MEM, 10% FBS, and 1% penicillin-streptomycin, inoculated at 20 μl/well (4×10^3 cells/well) onto a 384-well plate (Corning, 3826), and cultured overnight in a CO2 incubator. On the next day, the medium was removed from this plate, and then, 1.6 mM IBMX/KRB buffer was added thereto at 10 μl/well. The mixture was stirred on a plate shaker and then incubated at room temperature for 10 minutes. […] The mixture was stirred on a plate shaker and then incubated for 15 minutes in a CO2 incubator. Thereafter, a lysis buffer (50 mM phosphate buffer, pH 7.0, and 1% Triton X-100) was added thereto at 5 μl/well. The cells were lysed by stirring for 10 minutes on a plate shaker. Subsequently, the cGMP levels in the cell lysates were measured by use of a cGMP kit (manufactured by Cisbio Bioassays). Specifically, to a 384-well plate (Greiner, 784076), 5 μl/well of a diluent attached to the kit, 5 μl/well of the cell lysate, 5 μl/well of cGMP-d2, and 5 μl/well of anti cGMP-Cryptate were added. The mixture was stirred on a plate shaker and then incubated overnight at 4° C. in the dark, followed by the measurement of homogeneous time-resolved fluorescence using RubyStar (manufactured by BMG LABTECH JAPAN Ltd.). The activity value (T/C) of the test substance at each concentration was calculated when the activity value of a well supplemented with only a solvent was defined as 0 and the activity value of a well supplemented with 1 nM ANP was defined as 1.

Structure (SMILES) | EC50 [nM]
CC[C@H](C)[C@@H]1NC(=O)[C@H](CCCNC(=N)N)NC(=O)[C@H](CC(=O)O)NC(=O)[C@H](CCSC)NC(=O)[C@H](CCCNC(=N)N)NC(=O)CNC(=O)CNC(=O)[C@H](Cc2ccccc2)NC(=O)[C@@H](NC(=O)[C@H](CO)NC(=O)[C@H](CO)NC(=O)[C@H](CCCNC(=N)N)NC(=O)[C@H](CCCNC(=N)N)NC(=O)[C@H](CC(C)C)NC(=O)[C@H](CO)NC(=O)CCOCCOCCOCCOCCNC(=O)CO[C@@H]2O[C@H](CO)[C@@H](O[C@@H]3O[C@H](CO)[C@@H](O[C@@H]4O[C@H](CO[C@H]5O[C@H](CO)[C@@H](O)[C@H](O)[C@@H]5O[C@@H]5O[C@H](CO)[C@@H](O[C@@H]6O[C@H](CO[C@]7(C(=O)O)C[C@H](O)[C@@H](NC(C)=O)[C@H]([C@H](O)[C@H](O)CO)O7)[C@H](O)[C@H](O)[C@H]6O)[C@H](O)[C@H]5NC(C)=O)[C@@H](O)[C@H](O[C@H]5O[C@H](CO)[C@@H](O)[C@H](O)[C@@H]5O[C@@H]5O[C@H](CO)[C@@H](O[C@@H]6O[C@H](CO[C@]7(C(=O)O)C[C@H](O)[C@@H](NC(C)=O)[C@H]([C@H](O)[C@H](O)CO)O7)[C@H](O)[C@H](O)[C@H]6O)[C@H](O)[C@H]5NC(C)=O)[C@@H]4O)[C@H](O)[C@H]3NC(C)=O)[C@H](O)[C@H]2NC(C)=O)CSSC[C@@H](C(=O)N[C@@H](CC(N)=O)C(=O)N[C@@H](CO)C(=O)N[C@@H](Cc2ccccc2)C(=O)N[C@@H](CCCNC(=N)N)C(=O)N[C@@H](Cc2ccc(O)cc2)C(=O)NCCOCCOCCOCCOCCC(=O)NCCO[C@@H]2O[C@H](CO)[C@@H](O[C@@H]3O[C@H](CO)[C@@H](O[C@@H]4O[C@H](CO[C@H]5O[C@H](CO)[C@@H](O)[C@H](O)[C@@H]5O[C@@H]5O[C@H](CO)[C@@H](O[C@@H]6O[C@H](CO[C@]7(C(=O)O)C[C@H](O)[C@@H](NC(C)=O)[C@H]([C@H](O)[C@H](O)CO)O7)[C@H](O)[C@H](O)[C@H]6O)[C@H](O)[C@H]5NC(C)=O)[C@@H](O)[C@H](O[C@H]5O[C@H](CO)[C@@H](O)[C@H](O)[C@@H]5O[C@@H]5O[C@H](CO)[C@@H](O[C@@H]6O[C@H](CO[C@]7(C(=O)O)C[C@H](O)[C@@H](NC(C)=O)[C@H]([C@H](O)[C@H](O)CO)O7)[C@H](O)[C@H](O)[C@H]6O)[C@H](O)[C@H]5NC(C)=O)[C@@H]4O)[C@H](O)[C@H]3NC(C)=O)[C@H](O)[C@H]2NC(C)=O)NC(=O)CNC(=O)[C@H](CC(C)C)NC(=O)CNC(=O)[C@H](CO)NC(=O)[C@H](CCC(N)=O)NC(=O)[C@H](C)NC(=O)CNC1=O [Compound 2-24, SG-PEG(3)-hANP(1-28)-PEG(3)-SG] | 0.54
CC[C@H](C)[C@@H]1NC(=O)[C@H](CCCNC(=N)N)NC(=O)[C@H](CC(=O)O)NC(=O)[C@H](CCSC)NC(=O)[C@H](CCCNC(=N)N)NC(=O)CNC(=O)CNC(=O)[C@H](Cc2ccccc2)NC(=O)[C@@H](NC(=O)[C@H](CO)NC(=O)[C@H](CO)NC(=O)[C@H](CCCNC(=N)N)NC(=O)[C@H](CCCNC(=N)N)NC(=O)[C@H](CC(C)C)NC(=O)[C@H](CO)NC(=O)CCOCCOCCOCCOCCOCCOCCOCCOCCOCCOCCOCCOCCNC(=O)CCOCCOCCOCCOCCOCCOCCOCCOCCOCCOCCOCCOCCNC(=O)[C@H](CC(=O)N[C@@H]2O[C@H](CO)[C@@H](O[C@@H]3O[C@H](CO)[C@@H](O[C@@H]4O[C@H](CO[C@H]5O[C@H](CO)[C@@H](O)[C@H](O)[C@@H]5O[C@@H]5O[C@H](CO)[C@@H](O[C@@H]6O[C@H](CO[C@]7(C(=O)O)C[C@H](O)[C@@H](NC(C)=O)[C@H]([C@H](O)[C@H](O)CO)O7)[C@H](O)[C@H](O)[C@H]6O)[C@H](O)[C@H]5NC(C)=O)[C@@H](O)[C@H](O[C@H]5O[C@H](CO)[C@@H](O)[C@H](O)[C@@H]5O[C@@H]5O[C@H](CO)[C@@H](O[C@@H]6O[C@H](CO[C@]7(C(=O)O)C[C@H](O)[C@@H](NC(C)=O)[C@H]([C@H](O)[C@H](O)CO)O7)[C@H](O)[C@H](O)[C@H]6O)[C@H](O)[C@H]5NC(C)=O)[C@@H]4O)[C@H](O)[C@H]3NC(C)=O)[C@H](O)[C@H]2NC(C)=O)NC(=O)CO[C@@H]2O[C@H](CO)[C@@H](O[C@@H]3O[C@H](CO)[C@@H](O[C@@H]4O[C@H](CO[C@H]5O[C@H](CO)[C@@H](O)[C@H](O)[C@@H]5O[C@@H]5O[C@H](CO)[C@@H](O[C@@H]6O[C@H](CO[C@]7(C(=O)O)C[C@H](O)[C@@H](NC(C)=O)[C@H]([C@H](O)[C@H](O)CO)O7)[C@H](O)[C@H](O)[C@H]6O)[C@H](O)[C@H]5NC(C)=O)[C@@H](O)[C@H](O[C@H]5O[C@H](CO)[C@@H](O)[C@H](O)[C@@H]5O[C@@H]5O[C@H](CO)[C@@H](O[C@@H]6O[C@H](CO[C@]7(C(=O)O)C[C@H](O)[C@@H](NC(C)=O)[C@H]([C@H](O)[C@H](O)CO)O7)[C@H](O)[C@H](O)[C@H]6O)[C@H](O)[C@H]5NC(C)=O)[C@@H]4O)[C@H](O)[C@H]3NC(C)=O)[C@H](O)[C@H]2NC(C)=O)CSSC[C@@H](C(=O)N[C@@H](CC(N)=O)C(=O)N[C@@H](CO)C(=O)N[C@@H](Cc2ccccc2)C(=O)N[C@@H](CCCNC(=N)N)C(=O)N[C@@H](Cc2ccc(O)cc2)C(=O)O)NC(=O)CNC(=O)[C@H](CC(C)C)NC(=O)CNC(=O)[C@H](CO)NC(=O)[C@H](CCC(N)=O)NC(=O)[C@H](C)NC(=O)CNC1=O [Compound 2-28, SG-(SG-)Asn-PEG(11)-PEG(11)-hANP(1-28)] | 0.31
CC[C@H](C)[C@@H]1NC(=O)[C@H](CCCNC(=N)N)NC(=O)[C@H](CC(=O)O)NC(=O)[C@H](CCSC)NC(=O)[C@H](CCCNC(=N)N)NC(=O)CNC(=O)CNC(=O)[C@H](Cc2ccccc2)NC(=O)[C@@H](NC(=O)[C@H](CO)NC(=O)[C@H](CO)NC(=O)[C@H](CCCNC(=N)N)NC(=O)[C@H](CCCNC(=N)N)NC(=O)[C@H](CC(C)C)NC(=O)[C@H](CO)NC(=O)CCOCCOCCOCCOCCNC(=O)CCSC2CC(=O)N(CCC(=O)N[C@@H](CCC(=O)NCCO[C@@H]3O[C@H](CO)[C@@H](O[C@@H]4O[C@H](CO)[C@@H](O[C@@H]5O[C@H](CO[C@H]6O[C@H](CO)[C@@H](O)[C@H](O)[C@@H]6O[C@@H]6O[C@H](CO)[C@@H](O[C@@H]7O[C@H](CO[C@]8(C(=O)O)C[C@H](O)[C@@H](NC(C)=O)[C@H]([C@H](O)[C@H](O)CO)O8)[C@H](O)[C@H](O)[C@H]7O)[C@H](O)[C@H]6NC(C)=O)[C@@H](O)[C@H](O[C@H]6O[C@H](CO)[C@@H](O)[C@H](O)[C@@H]6O[C@@H]6O[C@H](CO)[C@@H](O[C@@H]7O[C@H](CO[C@]8(C(=O)O)C[C@H](O)[C@@H](NC(C)=O)[C@H]([C@H](O)[C@H](O)CO)O8)[C@H](O)[C@H](O)[C@H]7O)[C@H](O)[C@H]6NC(C)=O)[C@@H]5O)[C@H](O)[C@H]4NC(C)=O)[C@H](O)[C@H]3NC(C)=O)C(=O)NCCO[C@@H]3O[C@H](CO)[C@@H](O[C@@H]4O[C@H](CO)[C@@H](O[C@@H]5O[C@H](CO[C@H]6O[C@H](CO)[C@@H](O)[C@H](O)[C@@H]6O[C@@H]6O[C@H](CO)[C@@H](O[C@@H]7O[C@H](CO[C@]8(C(=O)O)C[C@H](O)[C@@H](NC(C)=O)[C@H]([C@H](O)[C@H](O)CO)O8)[C@H](O)[C@H](O)[C@H]7O)[C@H](O)[C@H]6NC(C)=O)[C@@H](O)[C@H](O[C@H]6O[C@H](CO)[C@@H](O)[C@H](O)[C@@H]6O[C@@H]6O[C@H](CO)[C@@H](O[C@@H]7O[C@H](CO[C@]8(C(=O)O)C[C@H](O)[C@@H](NC(C)=O)[C@H]([C@H](O)[C@H](O)CO)O8)[C@H](O)[C@H](O)[C@H]7O)[C@H](O)[C@H]6NC(C)=O)[C@@H]5O)[C@H](O)[C@H]4NC(C)=O)[C@H](O)[C@H]3NC(C)=O)C2=O)CSSC[C@@H](C(=O)N[C@@H](CC(N)=O)C(=O)N[C@@H](CO)C(=O)N[C@@H](Cc2ccccc2)C(=O)N[C@@H](CCCNC(=N)N)C(=O)N[C@@H](Cc2ccc(O)cc2)C(=O)O)NC(=O)CNC(=O)[C@H](CC(C)C)NC(=O)CNC(=O)[C@H](CO)NC(=O)[C@H](CCC(N)=O)NC(=O)[C@H](C)NC(=O)CNC1=O (stereo partly drawn) [Compound 2-31, SG-(SG-)Gln*-Mal-PEG(3)-hANP(1-28)] | 0.31
